What was measured:
[1] = system: resistant Escherichia coli; experiment: MIC alone and in combination against 30 strains of resistant Escherichia coli; assay type: cell-based
Method: The manner in which the compounds of the formula I increase the effectiveness of the compound of formula XXII and the pharmaceutically-acceptable salts thereof can be appreciated by reference to experiments in which the MIC of the compound of the formula XXII alone, and the compound of the formula I wherein R^1 is hydrogen alone, are measured. These MIC's are then compared with the MIC values obtained with a combination of the compound of formula XXII and the compound of the formula I, wherein R^1 is hydrogen. […] The MIC values of combinations are measured using the method described by Barry and Sabath in "Manual of Clinical Microbiology", edited by Lenette, Spaulding and Truant, 2nd edition, 1974, American Society of Microbiology.
The minimum inhibitory concentrations (MIC's) of penicillanic acid 1,1-dioxide (PA 1,1-dioxide) alone and 7-(D-2-[4-ethylpiperazine-2,3-dione-1-carboxamido]-2-[4-hydroxyphenyl]acetamido)-3-([1-methyl-5-tetrazolyl]thiomethyl)-3-desacetoxymethylcephalosporanic acid (T-1551) alone, against 30 strains of resistant Escherichia coli, were measured. These MIC's were then compared with the MIC values obtained with a combination of the two compounds. The results were as follows:
The MIC's were measured using the method recommended by the International Collaborative Study on Antibiotic Sensitivity Testing (Ericcson and Sherris, Acta. Pathologica et Microbiologica Scandivav, Supp. 217, Section B, 64-68 [1971]), which employed brain heart infusion agar and the inocular replicating device. Overnight growth tubes were diluted 10-fold for use as the standard inoculum. Twelve two-fold dilutions of the test compound were employed with initial concentration of the test drug being 200 mcg/ml. Single colonies were disregarded when reading plates after 18 hours at 37° C. […] The MIC's of combinations were measured using the method described by Barry and Sabath in "Manual of Clinical Microbiology", edited by Lenette, Spaulding and Truant, 2nd edition, 1974, American Society for Microbiology.

[2] = system: microbial beta-lactamases; experiment: Inhibition of microbial beta-lactamases; assay type: biochemical; details: result in words

SMILES	Mode MIC's of T-1551 & PA 1,1-Dioxide in Combination: PA 1,1-Dioxide ([1]; in combination with T-1551 (1.56))	inhibition of microbial beta-lactamases [2]	MIC ([1]; alone, BHI agar, 18 hours at 37° C., read-out: Mode MIC of T-1551 alone)	Mode MIC's of T-1551 & PA 1,1-Dioxide in Combination: T-1551 ([1]; in combination with PA 1,1-Dioxide (1.56))
CC1(C)[C@H](C(=O)O)N2C(=O)C[C@H]2S1(=O)=O [Penicillanic Acid 1,1-Dioxide]	1.56	potent inhibitors of microbial beta-lactamases		
CCN1CCN(C(=O)N[C@@H](C(=O)N[C@@H]2C(=O)N3C(C(=O)O)=C(CSc4nnnn4C)CS[C@H]23)c2ccc(O)cc2)C(=O)C1=O [Example T-1551, 7-(D-2-[4-ethylpiperazine-2,3-dione-1-carboxamido]-2-[4-hydroxyphenyl]acetamido)-3-([1-methyl-5-tetrazolyl]thiomethyl)-3-desacetoxymethylcephalosporanic acid]			100 µg/mL	1.56
